Where “and” joins values, the source holds several entries; their conditions need not be identical. Equal values may be shown once.
Experiments:
[1] = target: T1, NLRP3 inflammasome (Mus musculus, UniProt Q8R4B8); assay: IL-1β release from LPS-primed BMDCs (ELISA) as readout of NLRP3 inflammasome activation; format: cell-based
T1 construct: endogenous in cells; host or cells: primary mouse bone marrow-derived dendritic cells (BMDCs), LPS-primed
Summary of the method: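 NLRP3 inflammasome activation was read out as IL-1β released into the supernatant, measured by ELISA. Murine BMDCs were primed with LPS (50 ng ml^−1, 3 hours), then incubated with compounds for 3 hours, with each condition run in three technical replicates. Nigericin at 5 μM acted as the positive control activator, and IL-1β release was also expressed as a percentage of that control.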

[2] = target: T1, NLRP3 inflammasome; assay: Inflammasome stimulation of BMDCs after pre-incubation with inhibitors (MCC950, KCl, ebselen, cytochalasin D); format: cell-based
Procedure: For canonical inflammasome activation BMDCs after 7-9 days of differentiation were harvested and counted with a Neubauer Chamber (Hecht Assistant) and the concentration was set to 1 Mio cells ml^−1. 100 μl cell suspension per well were seeded in 96-well plates. The cells were primed with 50 ng ml^−1 E. coli K12 ultra-pure LPS for 3 hours and subsequently treated with canonical inflammasome activators or experimental compounds for 3 hours if not indicated differently (incubation time FIG. 4D, 5, 7, 8, 11, 13-18: 3 h, FIG. 12: 4 h). Concentrations of the stimuli were as follows if not indicated differently: 5 μM nigericin, 100 μM imiquimod (also known as R837), 100 μM CL097, 100 μM R848, […] poly(dA:dT), 300 μg ml^−1 MSU. If an inhibitor was used before stimuli treatment, the inhibitor was added after 2.5 hours of priming and it was incubated for 30 minutes before inflammasome activation. […]
All inflammasome stimulations were performed in three technical replicates for each condition. Lytic cell death was determined via LDH release (see FIGS. 8, 13-16 and 18), cytokines quantified in cell-free supernatants via ELISA (see FIGS. 4D, 7-9, 11-19) and cell lysates and supernatants analyzed via immunoblotting (see FIGS. 5A and 5B) as previously described in detail (Gross, Olaf, 2012 “Measuring the inflammasome”, Methods in molecular biology, Clifton, N.J., 844, pp. 199-222. Schneider, Katharina S.; Thomas, Christina J.; Groß, Olaf, 2013, “Inflammasome activation and inhibition in primary murine bone marrow-derived cells, and assays for IL-1α, IL-1β, and caspase-1”, Methods in molecular biology, Clifton, N.J., 1040, pp. 117-135).

T1 sequence (Q8R4B8 whole entry): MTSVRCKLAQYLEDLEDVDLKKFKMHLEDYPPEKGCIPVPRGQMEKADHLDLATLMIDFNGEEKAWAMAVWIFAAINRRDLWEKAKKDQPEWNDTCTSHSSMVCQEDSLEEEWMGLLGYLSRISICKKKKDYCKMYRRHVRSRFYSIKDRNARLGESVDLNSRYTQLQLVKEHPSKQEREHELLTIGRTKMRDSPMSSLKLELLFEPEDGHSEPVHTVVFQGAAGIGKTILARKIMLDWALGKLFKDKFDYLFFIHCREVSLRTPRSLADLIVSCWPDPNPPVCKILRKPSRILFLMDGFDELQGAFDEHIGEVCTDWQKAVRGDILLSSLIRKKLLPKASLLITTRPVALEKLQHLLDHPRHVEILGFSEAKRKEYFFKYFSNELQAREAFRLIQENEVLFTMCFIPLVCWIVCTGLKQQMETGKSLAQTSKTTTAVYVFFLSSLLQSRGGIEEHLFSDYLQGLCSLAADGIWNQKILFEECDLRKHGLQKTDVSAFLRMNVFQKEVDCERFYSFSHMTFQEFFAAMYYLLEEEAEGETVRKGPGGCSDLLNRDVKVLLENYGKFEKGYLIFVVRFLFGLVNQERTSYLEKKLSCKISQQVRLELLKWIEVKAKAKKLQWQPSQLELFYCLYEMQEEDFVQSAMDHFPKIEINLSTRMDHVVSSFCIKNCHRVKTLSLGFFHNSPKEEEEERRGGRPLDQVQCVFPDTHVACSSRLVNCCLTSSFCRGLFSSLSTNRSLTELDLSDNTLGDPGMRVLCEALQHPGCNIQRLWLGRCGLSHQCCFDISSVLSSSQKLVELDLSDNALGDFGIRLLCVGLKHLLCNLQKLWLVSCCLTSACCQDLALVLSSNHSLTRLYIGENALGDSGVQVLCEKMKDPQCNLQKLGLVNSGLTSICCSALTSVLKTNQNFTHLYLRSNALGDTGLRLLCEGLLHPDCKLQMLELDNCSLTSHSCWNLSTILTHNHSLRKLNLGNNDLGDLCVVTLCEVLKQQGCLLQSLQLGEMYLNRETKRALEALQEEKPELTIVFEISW

O=C(Nc1ccccc1)Nc1ccc2ncccc2c1 [EN22, 1-phenyl-3-(quinolin-6-yl)urea]
Average IL-1β ([1]; 10 μM): 10.000 ng/mL
IL-1β ([1]; 10 μM, individual replicate values): 10.000 ng/mL
Average IL-1β ([1]; 18.75 μM): 6.322 ng/mL
IL-1β ([1]; 18.75 μM, individual replicate values): 7.071 ng/mL and 5.864 ng/mL and 6.030 ng/mL
Average IL-1β ([1]; 25 μM, EN11 series table): 1.474 ng/mL
IL-1β ([1]; 25 μM, individual replicate values, EN11 series table): 1.387 ng/mL and 1.391 ng/mL and 1.646 ng/mL
time after which inflammasome activation is almost maximum ([1]; BMDCs from wild-type mice without inhibitor): 30 min
EC50 for induction of IL-1β, times lower than for imiquimod and CL097 ([1]; BMDCs, FIG. 4D): 10 times
Average (% positive control) ([1]; IL-1β release, compound 50 μM, positive control nigericin 5 μM): 128.957 % positive control
Average (% positive control) ([1]; IL-1β, 10 μM, positive control EN22 10 μM): 100.000 % positive control
Average (% positive control) ([1]; IL-1β, 18.75 μM, positive control EN22 18.75 μM): 100.000 % positive control
Average (% positive control) ([1]; IL-1β, 25 μM, positive control EN22 25 μM): 100.000 % positive control
Average (% positive control) ([1]; IL-1β, concentration not given, positive control EN22): 100.000 % positive control
Average IL-1β ([1]; compound 50 μM, LPS-primed BMDCs): 9.244 ng/mL
Average IL-1β ([1]; concentration not given, JB series table): 1.957 ng/mL
IL-1β ([1]; concentration not given, individual replicate values, JB series table): 1.632 ng/mL and 2.095 ng/mL and 2.146 ng/mL
Average IL-1β ([1]; section 1.2, 25 μM): 5.026 ng/mL
Average (% positive control) ([1]; section 1.2, IL-1β release, 25 μM, positive control EN22 25 μM): 100.000 % positive control
IL-1β ([1]; section 1.2, single replicates, 25 μM): 4.821 ng/mL and 5.196 ng/mL and 5.062 ng/mL
IL-1β ([1]; single replicates, compound 50 μM, LPS-primed BMDCs): 8.679 ng/mL and 9.014 ng/mL and 9.589 ng/mL and 8.363 ng/mL and 10.000 ng/mL and 9.819 ng/mL
dependence of NLRP3 inflammasome activation on potassium efflux from the cell ([2]; 50 mM extracellular KCl, FIGS. 11 and 17): independently of potassium efflux
effect of the endocytosis inhibitor cytochalasin D on NLRP3 activation ([2]; LPS-primed wild-type BMDCs, FIG. 12): has no effect
effect of the NLRP3-specific inhibitor MCC950 on inflammasome activation by the compound ([2]; wild-type BMDCs, compound 50 μM, FIG. 8): completely suppresses

From patent publication US20240277658A1, “NLRP3 ACTIVATORS FOR USE IN THE TREATMENT OF INFECTIOUS DISEASES OR CANCER BY ACTIVATING NLRP3 INFLAMMASOME” (ALBERT-LUDWIGS-UNIVERSITÄT FREIBURG, priority 2020, published 2024)
